What was measured:
[1] = tested on: Kaposi Sarcoma lesions; test: Patients with Kaposi Sarcoma: cutaneous lesion size and quantity; type: in vivo, human
Experimental: Subjects with HIV-associated KS may receive continuous daily treatment with a Compound being administered BID for up to 48 weeks. […] Response rate of HIV-associated KS to a Compound is an indicator of efficacy.
Compound Administration: Subjects may be administered a Compound at the following dose levels: 40 mg/dose BID, 80 mg/dose BID, and 100 mg/dose BID. A Compound may be orally administered each day on a BID schedule at approximately the same times each day. Ideally, doses should be taken at ˜12-hour intervals (e.g., at ˜7:00 AM and at ˜7:00 PM). If convenient for the subject, the drug may be taken during or within ˜30 minutes after a meal; however, administration with food is not required. Subjects may continue receiving repeated 4-week cycles of a Compound indefinitely or until termination. Compound administration may be terminated because of, e.g., tumor progression or other progression of KS, or a dose-limiting toxicity.
A medical history should be done within 21 days of administration of a Compound and may be done during the treatment course with a Compound (e.g., the first day of every 4 week cycle) and following such treatment. The medical history may include the following information: • 1. Previous HIV-related and non-HIV related diagnoses. • 2. […] For subjects with <50 total skin and oral lesions, all lesions should be evaluated for changes in number and characteristics. […]

[2] = 28-day oral toxicity study in dogs with 15-day recovery
Experimental: The L23 vehicle was used. […] All studies in the toxicology program were conducted according to GLP regulations.

[3] = Functional observation battery, 7 days oral gavage; type: in vivo, Sprague Dawley rats; settings: 40, 120, and 400 mg/kg daily oral gavage
[4] = tested on: hypoxia-inducible endogenous VEGF expression; test: Hypoxia-inducible endogenous VEGF expression ELISA in HeLa cells, dose-response EC50 (Table 3); type: cell-based; settings: Homo sapiens, hypoxic conditions (1% O2), VEGF ELISA of conditioned media
Experimental: The ability of the Compounds to modulate hypoxia-inducible endogenous VEGF expression may be analyzed as follows. VEGF protein levels may be monitored by an ELISA assay (R&D Systems). Briefly, HeLa cells may be cultured for 24-48 hours under hypoxic conditions (1% O2, 5% CO2, balanced with nitrogen) in the presence or absence of a Compound. The conditioned media may then be assayed by ELISA, and the concentration of VEGF calculated from the standard ELISA curve of each assay.
A dose-response analysis may be performed using the ELISA assay and conditions described above. The conditions for the dose-response ELISA are analogous to those described above. A series of, e.g., seven different concentrations may be analyzed. In parallel, a dose-response cytotoxicity assay may be performed using Cell Titer Glo (Promega) under the same conditions as the ELISA to ensure that the inhibition of VEGF expression was not due to the cytotoxicity.

[5] = target: T1, CYP2C9 (Homo sapiens, UniProt P11712); test: CYP inhibition in human hepatic microsomes or recombinant isoenzymes: CYP2C9; type: in vitro ADME
T1 construct: host or cells: human hepatic microsomes or human recombinant isoenzymes
T1 sequence (P11712 whole entry): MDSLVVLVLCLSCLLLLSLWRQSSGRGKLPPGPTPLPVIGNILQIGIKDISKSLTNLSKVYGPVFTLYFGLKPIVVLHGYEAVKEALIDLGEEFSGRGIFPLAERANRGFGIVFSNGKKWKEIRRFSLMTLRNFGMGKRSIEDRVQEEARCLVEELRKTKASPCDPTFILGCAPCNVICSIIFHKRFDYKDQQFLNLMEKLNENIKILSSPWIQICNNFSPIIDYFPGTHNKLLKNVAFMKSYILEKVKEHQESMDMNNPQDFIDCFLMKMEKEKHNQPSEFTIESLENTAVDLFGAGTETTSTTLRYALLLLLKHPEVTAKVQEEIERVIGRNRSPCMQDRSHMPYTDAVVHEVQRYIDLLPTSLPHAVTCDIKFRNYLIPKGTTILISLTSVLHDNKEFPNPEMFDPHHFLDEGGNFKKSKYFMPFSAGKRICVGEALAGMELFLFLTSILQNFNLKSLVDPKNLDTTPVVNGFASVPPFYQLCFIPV
Text: It is possible that in certain clinical trial subjects, such agents may need to be adjusted for dosing or replaced by alternative agents that are not metabolized by CYP2D6, particularly when such agents may have a low therapeutic index.

[6] = tested on: VEGF secreting cell lines; test: Cell cycle effects in several VEGF secreting human tumor cell lines (PI flow cytometry, Table 25); type: cell-based; settings: all of the tested tumor types; 10 nM or 100 nM, 18 hours
Experimental: Experimental Design. Several VEGF secreting cell lines were assayed for cell cycle effects. […] At the completion of treatment, cells were harvested and cellular DNA content was analyzed via PI staining and flow cytometry (as described in Section 9.3.1.1).

[7] = tested on: HT1080 xenografts; test: BrdU labeling of tumor cells from HT1080 xenografts in vivo; parameters: species or system athymic nude mice; settings: HT1080 xenografts, 1, 2, or 3 days of treatment
Experimental: Experimental Design. HT1080 cells (5×10^6 cells/mouse) were implanted subcutaneously in male athymic nude mice.
The mice were sacrificed 3 hours later, and the tumors collected. A single cell suspension was prepared from the tumor cells. The cells were permeabilized and an antibody to BrdU was used to stain cells that had entered S phase during the labeling period. The proportion of cells actively synthesizing DNA was determined by cell sorting.

SMILES: COc1ccc(C2c3[nH]c4ccc(Cl)cc4c3CCN2C(=O)Oc2ccc(Cl)cc2)cc1 (racemic) [Compound #10]
- lesion size (in words) ([1]; patients with Kaposi Sarcoma (FIG. 34)): reduced
- reduction in the number of raised lesions ([1]; patients with Kaposi Sarcoma labeled PR (FIG. 34)): ≥ 50%
- dose at which maximal exposures occurred ([2]; dogs, 5, 15, and 30 mg/kg/dose BID, 28 days): 30 mg/kg/dose BID
- clinical tolerability ([2]; dogs, low- and mid-dose levels (5, 15 mg/kg/dose BID), 28 days): clinically well tolerated
- NOAEL for 28-days ([2]; dogs, oral capsules): 15 mg/kg/dose BID
- behavioral or neurological effects (functional observation battery) [3]: no adverse behavioral or neurological effects
- EC50 [4]: < 8 nM
- inhibition of CYP2C9 (in words) [5]: No meaningful inhibition
- cell cycle delay versus inhibition of VEGF production (in words) [6]: coincident with the inhibition of VEGF production
- BrdU staining of tumor cells (fraction in S phase) (in words) [7]: increased BrdU staining

Source: patent US8697662B2, “Methods for treating Kaposi sarcoma” (PTC Therapeutics, Inc., priority 2009, dated 2014)
